Earlier results, collected in patent US5569647A, “Angiopeptin cyclopeptide compounds” (Adir et Compagnie, priority 1993, dated 1996).

Test system: cells of the vascular smooth muscle
Conditions: rat carotid artery, desiccation of the endothelium in air

Substance: angiopeptin
- anti-proliferative effect in vivo on cells of the vascular smooth muscle: anti-proliferative effect in vivo
